The results in this text go back to patent US12319676B2, “Substituted amide compounds useful as farnesoid X receptor modulators” (BRISTOL-MYERS SQUIBB COMPANY, priority 2019, dated 2025).

This test addresses T1, human FXR (Homo sapiens, UniProt Q96RI1).
T1 construct: expressed in transfected cells; host or cells: HEK293 cells stably carrying a 5xGal4 response element-luciferase reporter, transiently transfected with pcDNA3.1-Gal4-FXR
T1 sequence (Q96RI1 262-486 limits assumed): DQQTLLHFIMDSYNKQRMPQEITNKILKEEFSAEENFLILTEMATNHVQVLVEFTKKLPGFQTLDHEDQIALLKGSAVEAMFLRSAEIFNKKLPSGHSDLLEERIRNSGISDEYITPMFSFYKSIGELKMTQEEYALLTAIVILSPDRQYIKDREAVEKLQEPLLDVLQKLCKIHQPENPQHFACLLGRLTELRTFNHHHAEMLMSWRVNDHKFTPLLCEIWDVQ
The test is described as follows: transient human FXR/Gal4-luciferase reporter assay. As to conditions: Gal4-hFXR fusion construct, luciferase reporter in HEK293 cells; overnight incubation; response as percentage of 8 μM GW-4064 control. It is filed as cell-based. As for the experimental part:
The exemplified compounds of the present invention were tested in the transient human FXR/Gal4-luciferase reporter assay, and assay results were reported in Table 1 and Examples 1 to 3 together with other analytical data. A Gal4-hFXR fusion construct reporter system was used as the primary assay to characterize compound activity. A construct including 5 copies of the Gal4 promoter response element upstream of a firefly luciferase reporter cDNA was stably expressed in HEK293 cells. This reporter cell line was maintained in Dulbecco's Modified Eagle's medium (DMEM; Gibco) supplemented with 1% penicillin-streptomycin (P/S) solution, 500 μg/mL Zeocin and 10% charcoal/dextran-treated fetal bovine serum (cs-FBS) at 37° C. in a humidified 5% CO2 atmosphere. Another plasmid was constructed in which the human cytomegalovirus promoter in the pcDNA3.1 vector directs the expression of the cDNA encoding a fusion protein comprised of the DNA binding domain from the Gal4 transcription factor fused to the ligand binding domain from human FXR. The day prior to transfection, the reporter cells in culture are detached from the plate with trypsin and plated into a T75 flask at a sufficient density to achieve approximately 90% confluence the next morning. The transfection reagents are prepared by separately diluting 25 μg of the pcDNA3.1-Gal4-FXR plasmid into 1.87 mL of Opti-MEM (Thermo-Fisher), and 40 μL of Lipofectamine 2000 (Thermo-Fisher) into 1.87 mL of Opti-MEM, and then adding the diluted DNA solution into the diluted Lipofectamine 2000 solution and incubating at room temperature for 15-20 minutes. The mixture is further diluted with 10 mL of a solution comprised of DMEM, 10% cs-FBS, and 1% P/S immediately prior to transferring to the cells. The maintenance culture media is aspirated from the cells and the final transfection mixture is added before the cells are incubated overnight at 37° C. in a humidified 5% CO2 atmosphere. This protocol can be scaled up, and the transiently transfected cells can be cryopreserved in an assay-ready format. For compound testing, 100 nL of the compounds (serial dilutions in DMSO) are dispensed with an Echo acoustic dispenser (Labcyte) into the wells of a Corning/Costar clear bottom 384-well white plate. The transfected cells are harvested, counted, and diluted such that 10-25,000 cells in 25 μL are plated into each well of the 384-well compound assay plate. The compound-treated cells are incubated overnight at 37° C. in a humidified 5% CO2 atmosphere. The next morning 25 μL of Steady-Glo (Promega) are added to each well of the plate, the mixture is incubated for 15 min. with shaking, and luminescence is measured on an Envision (Perkin Elmer) plate reader. Background counts from cells treated with DMSO alone are subtracted from all raw counts, and the corrected values are converted to a percentage of the control response attained with 8 μM GW-4064.
As a reminder, the EC50 is the concentration needed to bring the measured effect to its halfway point. The low end stands for a more potent agent, the high end for a less potent agent. On to `CC(C)(C)c1noc(C23CCC(CN(c4cccc(Br)c4)C(=O)[C@H]4C[C@](O)(C(F)(F)F)C4)(CC2)C3)n1` [Example 133, (1s, 3s)-N-(3-bromophenyl)-N-((4-(3-(tert-butyl)-1,2,4-oxadiazol-5-yl)bicyclo[2.2.1]heptan-1-yl)methyl)-3-hydroxy-3-(trifluoromethyl) cyclobutane-1-carboxamide], for which the EC50 was 4000 nM.
The value for `CC(F)(F)c1nc(C23CCC(CN(C(=O)C4CC(F)(F)C4)c4cc(F)cc(C#N)c4)(CC2)CC3)no1` [Example 137, N-(3-cyano-5-fluorophenyl)-N-((4-(5-(1,1-difluoroethyl)-1,2,4-oxadiazol-3-yl)bicyclo[2.2.2]octan-1-yl)methyl)-3,3-difluorocyclobutane-1-carboxamide] was 103 nM; that for `COc1cccc(N(CC23CCC(c4nc(C5CC5)no4)(CC2)CC3)C(=O)C2CC(F)(F)C2)c1` [Example 59, N-((4-(3-cyclopropyl-1,2,4-oxadiazol-5-yl)bicyclo[2.2.2]octan-1-yl)methyl)-3,3-difluoro-N-(3-methoxyphenyl)cyclobutane-1-carboxamide] was 673 nM.
With `CCOc1cccc(N(CC23CCC(c4noc(C(C)(F)F)n4)(CC2)CC3)C(=O)C23CC(F)(C2)C3)c1` [Example 130, N-((4-(5-(1,1-difluoroethyl)-1,2,4-oxadiazol-3-yl)bicyclo[2.2.2]octan-1-yl)methyl)-N-(3-ethoxyphenyl)-3-fluorobicyclo[1.1.1]pentane-1-carboxamide] the figure was 91 nM; with `CC(F)(F)c1nc(C23CCC(CN(C(=O)C45CC(F)(C4)C5)c4cccc(C(F)(F)F)c4)(CC2)CC3)no1` [Example 14, N-((4-(5-(1,1-difluoroethyl)-1,2,4-oxadiazol-3-yl)bicyclo[2.2.2]octan-1-yl)methyl)-3-fluoro-N-(3-(trifluoromethyl)phenyl)bicyclo[1.1.1]-pentane-1-carboxamide], 29 nM; with `CC(C)(CO)CNC(=O)N(CC12CCC(c3noc(C(C)(C)F)n3)(CC1)CC2)c1cccc(C#N)c1` [Example 97, 1-(3-cyanophenyl)-1-((4-(5-(2-fluoropropan-2-yl)-1,2,4-oxadiazol-3-yl)bicyclo[2.2.2]octan-1-yl)methyl)-3-(3-hydroxy-2,2-dimethylpropyl)urea], 1000 nM.
`CC(F)(F)c1nc(C23CCC(CN(C(=O)NC[C@H](F)C(C)(C)O)c4cccc(Br)c4)(CC2)CC3)no1` [Example 131, (S)-1-(3-bromophenyl)-1-((4-(5-(1,1-difluoroethyl)-1,2,4-oxadiazol-3-yl)bicyclo[2.2.2]octan-1-yl)methyl)-3-(2-fluoro-3-hydroxy-3-methylbutyl)urea] registered an EC50 of 228 nM.
With `CC(F)(F)c1nc(C23CCC(CN(C(=O)C45CC(F)(C4)C5)c4cccc(F)c4)(CC2)CC3)no1` [Example 7, N-((4-(5-(1,1-difluoroethyl)-1,2,4-oxadiazol-3-yl)bicyclo[2.2.2]octan-1-yl)methyl)-3-fluoro-N-(3-fluorophenyl)bicyclo[1.1.1]pentane-1-carboxamide] the figure was 30 nM; with `CC(C)(C)c1nc(C23CCC(CN(C(=O)C45CC(F)(C4)C5)c4cccc(Nc5ccc(OC(F)F)cc5)c4)(CC2)CC3)no1` [Example 84, N-((4-(5-(tert-butyl)-1,2,4-oxadiazol-3-yl)bicyclo[2.2.2]octan-1-yl)methyl)-N-(3-((4-(difluoromethoxy)phenyl)amino)phenyl)-3-fluorobicyclo[1.1.1]pentane-1-carboxamide], 84 nM.
With `CCOc1cccc(N(CC23CCC(c4nc(C5CC5)no4)(CC2)CC3)C(=O)C2CC(F)(F)C2)c1` [Example 53, N-((4-(3-cyclopropyl-1,2,4-oxadiazol-5-yl)bicyclo[2.2.2]octan-1-yl)methyl)-N-(3-ethoxyphenyl)-3,3-difluorocyclobutane-1-carboxamide] the figure was 441 nM; with `O=C(N(CC12CCC(c3ccc(C(F)(F)F)cn3)(CC1)CC2)c1cccc(Nc2ccc(C3CC3)cn2)c1)C12CC(F)(C1)C2` [Example 109, N-(3-((5-cyclopropylpyridin-2-yl)amino)phenyl)-3-fluoro-N-((4-(5-(trifluoromethyl)pyridin-2-yl)bicyclo[2..2.2]octan-1-yl)methyl)bicyclo[1.1.1]pentane-1-carboxamide], 292 nM; with `CS(=O)(=O)c1cccc(N(CC23CCC(c4nc(C5CC5)no4)(CC2)CC3)C(=O)C2CCC(F)(F)CC2)c1` [Example 69, N-((4-(3-cyclopropyl-1,2,4-oxadiazol-5-yl)bicyclo[2.2.2]octan-1-yl)methyl)-4,4-difluoro-N-(3-(methylsulfonyl)phenyl)cyclohexane-1-carboxamide], 4000 nM.
With `CC(C)(C)OC(=O)Nc1cccc(N(CC23CCC(c4noc(C(C)(F)F)n4)(CC2)CC3)C(=O)C23CC(F)(C2)C3)c1` [Example 32, Tert-butyl (3-(N-((4-(5-(1,1-difluoroethyl)-1,2,4-oxadiazol-3-yl)bicyclo[2.2.2]octan-1-yl)methyl)-3-fluorobicyclo[1.1.1]pentane-1-carboxamido)phenyl)carbamate] the figure was 62 nM; with `CC(C)(C)c1noc(C23CCC(CN(c4cccc(C#N)c4)C(=O)[C@H]4C[C@@](C)(O)C4)(CC2)CC3)n1` [Example 40, (1S,3S)-N-((4-(3-(tert-butyl)-1,2,4-oxadiazol-5-yl)bicyclo[2.2.2]octan-1-yl)methyl)-N-(3-cyanophenyl)-3-hydroxy-3-methylcyclobutane-1-carboxamide], 1260 nM.
In turn, `N#Cc1cccc(N(CC23CCC(c4noc(C(F)(F)F)n4)(CC2)CC3)C(=O)C23CC(F)(C2)C3)c1` [Example 114, N-(3-cyanophenyl)-3-fluoro-N-((4-(5-(trifluoromethyl)-1,2,4-oxadiazol-3-yl)bicyclo[2.2.2]octan-1-yl)methyl)bicyclo[1.1.1]pentane-1-carboxamide] had a 50% effective concentration (EC50) of 80 nM.
For the compound `COc1cccc(N(CC23CCC(c4nc(C5CC5)no4)(CC2)CC3)C(=O)C23CC(F)(C2)C3)c1` [Example 58, N-((4-(3-cyclopropyl-1,2,4-oxadiazol-5-yl)bicyclo[2.2.2]octan-1-yl)methyl)-3-fluoro-N-(3-methoxyphenyl)bicyclo[1.1.1]pentane-1-carboxamide], it took 345 nM to reach a half-maximal effect (EC50).
With `CC(F)(F)c1nc(C23CCC(CN(C(=O)N[C@H]4CC[C@](C)(O)CC4)c4cccc(Br)c4)(CC2)CC3)no1` [Example 30, 1-(3-bromophenyl)-1-((4-(5-(1,1-difluoroethyl)-1,2,4-oxadiazol-3-yl)bicyclo[2.2.2]octan-1-yl)methyl)-3-((1R,4R)-4-hydroxy-4-methylcyclohexyl)urea] the figure was 150 nM; with `COC(=O)COc1cccc(N(CC23CCC(c4ccc5c(cnn5C)c4)(CC2)OC3)C(=O)C2CCOCC2)c1` [Example 81, Methyl 2-(3-(N-((1-(1-methyl-1H-indazol-5-yl)-2-oxabicyclo[2.2.2]octan-4-yl)methyl)tetrahydro-2H-pyran-4-carboxamido)phenoxy) acetate], 4360 nM.
Regarding `CC(F)(F)c1nc(C23CCC(CN(c4cccc(F)c4)C(=O)[C@H]4C[C@](O)(C(F)(F)F)C4)(CC2)CC3)no1` [Example 8, N-((4-(5-(1,1-difluoroethyl)-1,2,4-oxadiazol-3-yl)bicyclo[2.2.2]octan-1-yl)methyl)-N-(3-fluorophenyl)-3-hydroxy-3-(trifluoromethyl)cyclobutane-1-carboxamide], the EC50 amounted to 462 nM.
